Measurements published in US9815796B2 (Merck Sharp & Dohme Corp., priority 2013, dated 2017).
Where two headings read alike, the source gives them in different places.

Columns and labels:
human PDE2A1 = human PDE2A1 (Homo sapiens (Human), UniProt O00408); test: IMAP FP PDE selectivity panel, human PDE2A1; type: biochemical
Outline: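 GST-tagged human PDE2A1 expressed in insect cells, run at room temperature for 60 min with 50 nM FAM-cAMP containing 1000 nM cGMP, pH 7.2 Tris/MgCl2 buffer. IMAP fluorescence polarization read after binding step.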

Rhesus PDE2A3 = Rhesus PDE2A3 (Macaca mulatta, UniProt B3VTJ2); test: PDE2 fluorescence polarization (IMAP FP) inhibition assay, rhesus enzyme; type: biochemical, rhesus macaque
Sequence of Rhesus PDE2A3 (B3VTJ2 1-941): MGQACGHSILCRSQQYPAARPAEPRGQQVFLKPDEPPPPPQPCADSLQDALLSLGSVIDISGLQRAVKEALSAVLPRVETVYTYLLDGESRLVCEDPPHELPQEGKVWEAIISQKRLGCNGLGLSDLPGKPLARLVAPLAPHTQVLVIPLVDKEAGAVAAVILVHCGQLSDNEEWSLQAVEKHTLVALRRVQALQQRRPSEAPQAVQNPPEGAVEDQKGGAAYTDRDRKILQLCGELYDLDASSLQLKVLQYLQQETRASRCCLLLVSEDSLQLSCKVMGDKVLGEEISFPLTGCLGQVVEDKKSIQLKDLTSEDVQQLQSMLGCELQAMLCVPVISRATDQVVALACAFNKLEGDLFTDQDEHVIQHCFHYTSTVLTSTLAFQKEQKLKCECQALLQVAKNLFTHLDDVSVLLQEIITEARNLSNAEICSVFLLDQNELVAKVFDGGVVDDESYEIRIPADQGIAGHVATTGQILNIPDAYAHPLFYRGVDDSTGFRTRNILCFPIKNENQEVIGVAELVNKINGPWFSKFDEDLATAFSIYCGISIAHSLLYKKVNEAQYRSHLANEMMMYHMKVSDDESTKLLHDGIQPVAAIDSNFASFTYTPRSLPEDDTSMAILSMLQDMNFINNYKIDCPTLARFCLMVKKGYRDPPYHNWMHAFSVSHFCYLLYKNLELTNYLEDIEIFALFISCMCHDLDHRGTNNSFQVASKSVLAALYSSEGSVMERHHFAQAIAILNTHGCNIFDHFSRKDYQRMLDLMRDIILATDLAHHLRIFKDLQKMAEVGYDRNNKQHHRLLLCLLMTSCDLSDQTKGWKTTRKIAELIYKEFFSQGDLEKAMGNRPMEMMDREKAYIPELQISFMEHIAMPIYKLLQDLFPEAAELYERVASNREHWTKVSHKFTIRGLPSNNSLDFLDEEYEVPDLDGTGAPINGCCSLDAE
Outline: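 Rhesus PDE2A3 came from lysate of transiently transfected AD293 cells, diluted to give 20% substrate conversion. Substrate was 50 nM FAM-cAMP with 1 uM cGMP activator in Tris pH 7.2/MgCl2 buffer, run 60 min at room temperature over 10-point 3-fold dilutions in 1% DMSO. Read-out was IMAP fluorescence polarization (mP) after ≥1 h binding.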

[1] = Human PDE2, Lab A, read-out: Human PDE2 Ki (nM) - Lab A
[2] = Rhesus PDE2, Lab A, read-out: Rhesus PDE2 Ki (nM) - Lab A
[3] = Human PDE2, Lab B, read-out: Human PDE2 Ki (nM) - Lab B
[4] = Rhesus PDE2, Lab B, read-out: Rhesus PDE2 Ki (nM) - Lab B

Sequence of human PDE2A1 (O00408 other isoform, or with tags, fused parts or gaps): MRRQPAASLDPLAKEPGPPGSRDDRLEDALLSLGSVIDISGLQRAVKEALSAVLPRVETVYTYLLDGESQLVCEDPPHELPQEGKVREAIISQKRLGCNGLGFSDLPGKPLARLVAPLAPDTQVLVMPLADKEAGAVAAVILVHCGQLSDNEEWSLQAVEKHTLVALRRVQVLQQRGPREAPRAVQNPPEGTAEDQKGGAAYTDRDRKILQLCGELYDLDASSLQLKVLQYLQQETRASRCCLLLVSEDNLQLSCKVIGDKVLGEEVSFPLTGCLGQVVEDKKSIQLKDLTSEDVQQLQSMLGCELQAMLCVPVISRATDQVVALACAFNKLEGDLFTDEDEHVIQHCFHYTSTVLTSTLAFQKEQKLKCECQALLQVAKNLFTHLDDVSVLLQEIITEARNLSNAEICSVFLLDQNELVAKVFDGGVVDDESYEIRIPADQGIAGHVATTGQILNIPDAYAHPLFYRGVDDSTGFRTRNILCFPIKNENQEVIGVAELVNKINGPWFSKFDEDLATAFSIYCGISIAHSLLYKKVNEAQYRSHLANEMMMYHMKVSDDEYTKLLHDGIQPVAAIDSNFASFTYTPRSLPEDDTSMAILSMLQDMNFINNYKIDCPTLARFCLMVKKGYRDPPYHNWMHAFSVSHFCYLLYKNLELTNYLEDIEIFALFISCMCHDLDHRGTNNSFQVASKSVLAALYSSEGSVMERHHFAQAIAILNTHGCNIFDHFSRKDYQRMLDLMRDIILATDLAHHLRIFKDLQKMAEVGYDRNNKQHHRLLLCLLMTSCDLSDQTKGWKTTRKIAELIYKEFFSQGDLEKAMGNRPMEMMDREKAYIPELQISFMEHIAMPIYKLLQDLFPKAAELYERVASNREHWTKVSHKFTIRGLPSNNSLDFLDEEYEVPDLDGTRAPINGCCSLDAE

Compound	Ki (human PDE2A1; [1])	Ki (Rhesus PDE2A3; [2])	Ki (human PDE2A1; [3])	Ki (Rhesus PDE2A3; [4])
C[C@@H](NC(=O)c1nc(C2CCC2)[nH]c(=O)c1C1CCC1)c1ccc(C(F)(F)F)cc1 [Example 335, (R)-2,5-dicyclobutyl-6-oxo-N-(1-(4-(trifluoromethyl)phenyl)ethyl)-1,6-dihydropyrimidine-4-carboxamide]	1220 nM	1320 nM	–	–
O=C(N[C@@H](c1ccc(C(F)(F)F)cc1)C1CC1)c1cc(=O)[nH]c(C2CC2)n1 [Example 213, 2-cyclopropyl-N-{(R)-cyclopropyl[4-(trifluoromethyl)phenyl]methyl}-6-oxo-1,6-dihydropyrimidine-4-carboxamide]	3.3 nM	6.1 nM	–	–
CC[C@@H](NC(=O)c1cc(=O)[nH]c(Cc2ccc(OC)cc2)n1)c1ccc(S(F)(F)(F)(F)F)cc1 [Example 482, 2-(4-methoxybenzyl)-6-oxo-N-{(1R)-1-[4-(pentafluoro-λ^6-sulfanyl)phenyl]propyl}-1,6-dihydropyrimidine-4-carboxamide]	–	–	3.4 nM	3.3 nM
CC(C)(C)[C@@H](NC(=O)c1cc(=O)[nH]c(C2CC2)n1)c1ccc(SC(F)(F)F)cc1 [Example 439, 2-cyclopropyl-N-[(1R)-2,2-dimethyl-1-{4-[(trifluoromethyl)sulfanyl]phenyl}pro-pyl]-6-oxo-1,6-dihydropyrimidine-4-carboxamide]	–	–	1.3 nM	1 nM
CC[C@@H](NC(=O)c1cc(=O)[nH]c(-c2ccccc2)n1)c1ccc(OC(F)(F)F)c(F)c1 [Example 172]	1.9 nM	2.7 nM	–	–
O=C(NC1(c2ccc(SC(F)(F)F)cc2)CCC1)c1cc(=O)[nH]c(C2CC2)n1 [Example 204, 2-cyclopropyl-6-oxo-N-(1-{4-[(trifluoromethyl)sulfanyl]phenyl}cyclobutyl)-1,6-dihydropyrimidine-4-carboxamide]	20 nM	37 nM	–	–
COc1cc(C(C)NC(=O)c2cc(=O)[nH]c(-c3ccccc3)n2)ccc1C(F)(F)F (stereo not drawn) [Example 155]	143 nM	119 nM	–	–
CC[C@@H](NC(=O)c1cc(=O)[nH]c(C)n1)c1ccc(SC(F)(F)F)c(F)c1 [Example 54, N-[(1R)-1-{3-fluoro-4-[(trifluoromethyl)sulfanyl]phenyl}propyl]-2-methyl-6-oxo-1,6-dihydropyrimidine-4-carboxamide]	5.5 nM	9.7 nM	–	–
O=C(N[C@@H](CC(F)(F)F)c1ccc(C(F)(F)F)cc1)c1cc(=O)[nH]c(-c2ccccc2)n1 [Example 366, 6-oxo-2-phenyl-N-{(1S)-3,3,3-trifluoro-1-[4-(trifluoromethyl)phenyl]propyl}-1,6-dihydropyrimidine-4-carboxamide]	–	132 nM	386 nM	458 nM
CC(NC(=O)c1cc(=O)[nH]c(-c2ccccc2)n1)c1ccc(C(C)(C)C)cc1 (stereo not drawn) [Example 391, N-[1-(4-tert-butylphenyl)ethyl]-6-oxo-2-phenyl-1,6-dihydropyrimidine-4-carboxamide]	–	–	40 nM	65 nM
Cc1nc(C(=O)NC(C)(C)c2ccc(C(F)(F)F)c(F)c2)cc(=O)[nH]1 [Example 43, N-{1-[3-fluoro-4-(trifluoromethyl)phenyl]-1-methylethyl}-2-methyl-6-oxo-1,6-dihydropyrimidine-4-carboxamide]	18 nM	20 nM	15 nM	14 nM
CC(C)[C@@H](NC(=O)c1cc(=O)[nH]c(C2CC2)n1)c1ccc(C(F)(F)F)cc1 [Example 193, 2-cyclopropyl-N-{(1R)-2-methyl-1-[4-(trifluoromethyl)phenyl]propyl}-6-oxo-1,6-dihydropyrimidine-4-carboxamide]	1.3 nM	3.9 nM	–	–
Cc1nc(C(=O)NC2(c3ccc(SC(F)(F)F)c(F)c3)CC2)cc(=O)[nH]1 [Example 261, N-(1-{3-fluoro-4-[(trifluoromethyl)sulfanyl]phenyl}cyclopropyl)-2-methyl-6-oxo-1,6-dihydropyrimidine-4-carboxamide]	–	18 nM	33 nM	37 nM
O=C(NC1(c2ccc(SC(F)(F)F)cc2)CC1)c1cc(=O)[nH]c(C2CC2)n1 [Example 199, 2-cyclopropyl-6-oxo-N-(1-{4-[(trifluoromethyl)sulfanyl]phenyl}cyclopropyl)-1,6-dihydropyrimidine-4-carboxamide]	7 nM	12 nM	–	–
CC1([C@@H](NC(=O)c2cc(=O)[nH]c(C3CC3)n2)c2ccc(OC(F)F)cc2)CC1 [Example 443, 2-cyclopropyl-N-[(1R)-[4-(difluoromethoxy)phenyl](1-methylcyclopropyl)methyl]-6-oxo-1,6-dihydropyrimidine-4-carboxamide]	–	–	7 nM	8 nM
CC(C)(NC(=O)c1cc(=O)[nH]c(C2CC2)n1)c1ccc(S(F)(F)(F)(F)F)cc1 [Example 680, 2-cyclopropyl-N-{1-methyl-1-[4-(pentafluoro-λ^6-sulfanyl)phenyl]ethyl}-6-oxo-1,6-dihydropyrimidine-4-carboxamide]	–	–	87 nM	80 nM
COc1ccc2cc(C(C)NC(=O)c3cc(=O)[nH]c(-c4ncccn4)n3)ccc2c1 (stereo not drawn) [Example 84, N-[1-(6-methoxynaphthalen-2-yl)ethyl]-6-oxo-1,6-dihydro-2,2′-bipyrimidine-4-carboxamide]	28 nM	117 nM	–	–
Cc1nc(C(=O)N[C@@H](c2ccc(OC(F)(F)F)c(F)c2)C(C)(C)C)cc(=O)[nH]1 [Example 60, (R)-N-(1-(3-fluoro-4-(trifluoromethoxy)phenyl)-2,2-dimethylpropyl)-2-methyl-6-oxo-1,6-dihydropyrimidine-4-carboxamide]	–	–	2.8 nM	4.8 nM
O=C(NC1(c2ccc(SC(F)(F)F)c(F)c2)CC1)c1cc(=O)[nH]c(-c2ncccn2)n1 [Example 253, N-(1-{3-fluoro-4-[(trifluoromethyl)sulfanyl]phenyl}cyclopropyl)-6-oxo-1,6-dihydro-2,2′-bipyrimidine-4-carboxamide]	17 nM	14 nM	–	–
Cc1nc(C(=O)N[C@@H](c2ccc(C(C)C)cc2)C2(C)CC2)cc(=O)[nH]1 [Example 427, 2-methyl-N-{(R)-(1-methylcyclopropyl)[4-(1-methylethyl)phenyl]methyl}-6-oxo-1,6-dihydropyrimidine-4-carboxamide]	–	–	3.7 nM	3.7 nM
COc1ccc(Cc2nc(C(=O)N[C@@H](c3ccc(SC(F)(F)F)cc3)C(C)(C)C)cc(=O)[nH]2)cc1 [Example 465, N-[(1R)-2,2-dimethyl-1-{4-[(trifluoromethyl)sulfanyl]phenyl}propyl]-2-(4-methoxybenzyl)-6-oxo-1,6-dihydropyrimidine-4-carboxamide]	–	–	0.62 nM	0.62 nM
CC(C)(NC(=O)c1cc(=O)[nH]c(-c2ccccc2)n1)c1ccccc1Br [Example 373, N-[1-(2-bromophenyl)-1-methylethyl]-6-oxo-2-phenyl-1,6-dihydropyrimidine-4-carboxamide]	–	155 nM	183 nM	225 nM
O=C(N[C@@H](c1ccc(SC(F)(F)F)cc1)C1CC1)c1cc(=O)[nH]c(-c2ccccc2)n1 [Example 178, N-[(R)-cyclopropyl{4-[(trifluoromethyl)sulfanyl]phenyl}methyl]-6-oxo-2-phenyl-1,6-dihydropyrimidine-4-carboxamide]	2.4 nM	3.3 nM	–	–
CC[C@@H](NC(=O)c1cc(=O)[nH]c(C)n1)c1ccc(SC(F)(F)F)cc1 [Example 29, 2-methyl-6-oxo-N-[(1R)-1-{4-[(trifluoromethyl)sulfanyl]phenyl}propyl]-1,6-dihydropyrimidine-4-carboxamide]	4.9 nM	9.2 nM	–	–
O=C(N[C@@H](c1ccc(OC(F)(F)F)c(F)c1)C1CC1)c1cc(=O)[nH]c(-c2ncccn2)n1 [Example 93, N-{(R)-cyclopropyl[3-fluoro-4-(trifluoromethoxy)phenyl]methyl}-6-oxo-1,6-dihydro-2,2′-bipyrimidine-4-carboxamide]	9.6 nM	35 nM	–	–
Cc1nc(C(=O)N[C@@H](c2ccc(SC(F)(F)F)c(F)c2)C(C)C)cc(=O)[nH]1 [Example 53, N-[(1R)-1-{3-fluoro-4-[(trifluoromethyl)sulfanyl]phenyl}-2-methylpropyl]-2-methyl-6-oxo-1,6-dihydropyrimidine-4-carboxamide]	2.8 nM	3.6 nM	–	–
COc1ccc(Cc2nc(C(=O)N[C@H](C)c3ccc(C(F)(F)F)cc3)cc(=O)[nH]2)cc1OC [Example 4, 2-(3,4-dimethoxybenzyl)-6-oxo-N-{(1R)-1-[4-(trifluoromethyl)phenyl]ethyl}-1,6-dihydropyrimidine-4-carboxamide]	0.52 nM	0.56 nM	–	–
CC[C@@H](NC(=O)c1cc(=O)[nH]c(-c2ncccn2)n1)c1ccc(S(F)(F)(F)(F)F)cc1 [Example 257, 6-oxo-N-{(1R)-1-[4-(pentafluoro-λ^6-sulfanyl)phenyl]propyl}-1,6-dihydro-2,2′-bipyrimidine-4-carboxamide]	–	2.6 nM	3.8 nM	4 nM
Cc1nc(C(=O)N[C@H](C)c2ccc(OC(F)F)cc2)cc(=O)[nH]1 [Example 304, (R)-N-(1-(4-(difluoromethoxy)phenyl)ethyl)-2-methyl-6-oxo-1,6-dihydropyrimidine-4-carboxamide]	76 nM	91 nM	–	–
Cc1cc([C@@H](C)NC(=O)c2cc(=O)[nH]c(C3CC3)n2)ccc1C(F)(F)F [Example 231, 2-cyclopropyl-N-{(1R)-1-[3-methyl-4-(trifluoromethyl)phenyl]ethyl}-6-oxo-1,6-dihydropyrimidine-4-carboxamide]	23 nM	39 nM	–	–
